Results on seven compounds are retold here after US5449692A, “Substituted (arylalkylaminobenzyl) aminopropionamide derivatives and process for their preparation” (Farmitalia Carlo Erba S.r.l., priority 1993, dated 1995).

Where a name gives a salt, the structure may show the parent alone.

A short description of data set [1]: antagonism of maximal electroshock seizures (MES). Format: in vivo. The following applies: MES test; read-out: MES - ED50 (effective dose in 50% of treated animals). (In the maximal electroshock model the usual endpoint is tonic extension of the hind limbs.)
A further data set in a line: in vivo. The procedure:
The neurotoxicity of the compounds and of the reference anticonvulsants was assessed with the rotorod test (Dunan and Miye, J. Am. Pharm. Ass. Sci. Ed., 1957, 46, 208; Kinnard et al. J. Pharmacol. Exp. Ther. 1957, 121, 354; Horowitz, Nature, 1963, 200, 369).
For instance, following Table 1 summarizes the activity and neurotoxicity data obtained in the MES test and in the rotorod test, respectively, for a representative group of compounds according to the present invention, in comparison with the prior art compound 2-(4-benzyl-aminobenzyl)aminopropanamide, dihydrochloride (internal code FCE 26749) which is known from WO-90/14334.
TD50 means toxic dose in 50% of treated animals

The term ED50 denotes the dose that gives a 50% effect, or the effect in half of the subjects. With `CC(NCc1ccc(NCc2ccccc2)cc1)C(N)=O` (stereo not drawn) [FCE 26749, 2-(4-benzyl-aminobenzyl)aminopropanamide, dihydrochloride, reference compound], the ED50 in data set [1] amounted to 9.5 mg/kg. Moreover, in “in vivo”, the TD50 came out at 217 mg/kg and the selectivity ratio amounted to 23.

For `C[C@H](NCc1ccc(NCc2cccc(F)c2)cc1)C(N)=O` [FCE 27232, 2-[4-(3-fluorobenzyl)aminobenzyl]aminopropanamide, dihydrochloride], the 50% effective dose (ED50) in data set [1] stood at 6.4 mg/kg. For the same compound, in “in vivo”, the TD50 turned out to be 516 mg/kg and the selectivity ratio is 81.

With `CC(NCc1ccc(NCc2ccc(Cl)cc2)cc1)C(N)=O.Cl.Cl` (stereo not drawn) [FCE 28622, 2-[4-(4-chlorobenzyl)aminobenzyl]aminopropanamide, dihydrochloride], the ED50 in data set [1] was determined as 18.7 mg/kg. In “in vivo”, the TD50 was found to be 1640 mg/kg and the selectivity ratio stood at 88.

Turning to `CC(NCc1ccc(NCCc2ccccc2)cc1)C(N)=O.Cl.Cl` (stereo not drawn) [FCE 28623, 2-[4-(2-phenylethyl)aminobenzyl]aminopropanamide, dihydrochloride], the ED50 in data set [1] is 17.1 mg/kg. Further, in the data set “in vivo”, the TD50 was 917 mg/kg and the selectivity ratio came to 54.

With `CC(NCc1ccc(NCc2ccc(Br)cc2)cc1)C(N)=O.Cl.Cl` (stereo not drawn) [FCE 28639, 2-[4-(4-bromobenzyl)aminobenzyl]aminopropanamide, dihydrochloride], in data set [1], the median effective dose (ED50) turned out to be 29.1 mg/kg. For the same compound, in “in vivo”, the TD50 came to 1900 mg/kg and the selectivity ratio is 65.

As to `CC(NCc1ccc(NCc2ccc(F)cc2)cc1)C(N)=O.Cl.Cl` (stereo not drawn) [FCE 28640, 2-[4-(4-fluorobenzyl)aminobenzyl]aminopropanamide, dihydrochloride], in data set [1], the median effective dose (ED50) worked out at 26.5 mg/kg. Also, in “in vivo”, the TD50 was found to be 1680 mg/kg and the selectivity ratio worked out at 63.

Take `CC(NCc1ccc(NCc2cccc(Cl)c2)cc1)C(N)=O.Cl.Cl` (stereo not drawn) [FCE 28714, 2-[4-(3-chlorobenzyl)aminobenzyl]aminopropanamide, dihydrochloride]: in data set [1], the ED50 stood at 11.3 mg/kg. In addition, in the data set “in vivo”, the TD50 is 663 mg/kg and the selectivity ratio was 59.
